According to publication PMC11784839, “Monoaminergic neurotransmitters are bimodal effectors of tau aggregation” (Science Advances, 2025):

Target: tau (Homo sapiens, UniProt P10636)
Test: MCE Phenols Library screening, tau biosensor cell seeding assay (AvZ)
Type: cell-based
Conditions: for Z repl 1 / Z Repl 2: Z score; for Z repl 1 / raw data 1: replicate 1; for Z Repl 2 / raw data 2: replicate 2; for AvZ (average z score of seeding, SDs from the mean level of seeding): 10 μM phenol in cell cultures, AD brain homogenate preincubated 16 hours, two biological replicates, positive = catalyzes seeding, negative = inhibits
[1] = average Z score of the two replicates, MCE Phenols Library screen
[2] = average puncta of the two replicates
[3] = average Z score of the two replicates, tau biosensor seeding, MCE Phenols Library screen
[4] = average Z score of the two replicates, tau seeding
[5] = average Z score of two replicates, Phenols Library screen

tau, sequence (P10636 623-695 limits assumed): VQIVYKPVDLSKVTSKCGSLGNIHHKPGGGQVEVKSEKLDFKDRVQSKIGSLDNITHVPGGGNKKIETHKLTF

SMILES	Z repl 1	Z Repl 2	av Z [1]	av puncta [2]	raw data 1 (puncta)	raw data 2 (puncta)	av Z [3]	av puncta (average of raw data 1 and 2)	av Z [4]	av Z [5]	raw data 1 (raw puncta)	raw data 2 (raw puncta)	AvZ (average z score of seeding, SDs from the mean level of seeding)
O=c1cc(-c2ccc(O)cc2)oc2cc(O)c([C@@H]3O[C@H](CO)[C@@H](O)[C@H](O)[C@H]3O)c(O)c12 [Isovitexin]	0.953	1.769			37791.5	31663.6	1.361	34727.5					
COc1cc2c(cc1O)CC[n+]1cc3c(OC)c(OC)ccc3cc1-2.[Cl-] [Jatrorrhizine (chloride)]	0.505	-0.062			32409.6	12098.4		22254	0.221				
O=C(CCc1ccc(O)c(O)c1)NCCCNCCCCNCCCNC(=O)CCc1ccc(O)c(O)c1 [Kukoamine A]	-0.156	-0.952	-0.554	13541.2	24479.5	2602.81							
NCCCN(CCCCNCCCNC(=O)CCc1ccc(O)c(O)c1)C(=O)CCc1ccc(O)c(O)c1 [Kukoamine B]	-1.263	-0.72	-0.992		11188.8	5072.6		8130.71					
OC[C@H]1O[C@@H](Oc2cc3c(O)cc(O)cc3[o+]c2-c2ccc(O)c(O)c2)[C@H](O)[C@@H](O)[C@@H]1O.[Cl-] [Kuromanin (chloride)]	-0.084	-0.888	-0.486	14314.9	25345.8	3284.04							
C=C(C)[C@H](CC=C(C)C)Cc1c(O)cc(O)c2c1O[C@H](c1ccccc1O)CC2=O [Kushenol A]	0.183	1.024			28541	23704.6		26122.8	0.603				
C=C(C)[C@H](CC=C(C)C)Cc1c(O)cc(OC)c2c1O[C@H](c1ccc(O)cc1O)[C@@H](O)C2=O [Kushenol I]	0.564	-0.398			33117.8	8515.32		20816.6		0.083			
N[C@@H](Cc1c[nH]c2ccc(O)cc12)C(=O)O [L-5-Hydroxytryptophan]	0.279	-0.269			29696.2	9887.95		19792.1					0.005
COc1cc2c(cc1O)-c1c(OC)c(O)cc3c1[C@H](C2)NCC3 [Laetanine]	-0.508	-0.181	-0.344	15544.8							20251.6	10838.1	
CC[C@@H](C(=O)[C@@H](C)[C@@H](O)[C@H](C)CCc1ccc(C)c(O)c1C(=O)O)[C@H]1O[C@](CC)([C@H]2CC[C@](O)(CC)[C@H](C)O2)C[C@@H]1C [Lasalocid]	0.41	-0.218			31268.6	10434.5		20851.6		0.096			
C=C(C)[C@H](CC=C(C)C)Cc1c(O)cc(O)c2c1O[C@H](c1ccc(O)cc1OC)CC2=O [Leachianone A]	-0.298	0.052			22771.5	13319.6		18045.6		-0.123			
COc1cc(C(=O)OCCCCNC(=N)N)cc(OC)c1O [Leonurine]	1.449	1.251			43747.9	26125.3		34936.6					1.35
Oc1cc(O)c2c(c1)O[C@H](c1ccc(O)c(O)c1)[C@@H](O)[C@H]2O [Leucocyanidin]	-0.147	-0.356	-0.251	16774.6							24584.1	8965.07	
COc1c(/C=C/C(=O)c2ccc(O)c(CC=C(C)C)c2)ccc(O)c1O [Licochalcone D]	0.138	0.907			28009.4	22452.6		25231	0.523				
COc1cc2c(cc1OC)[C@@H](Cc1ccc(O)c(Oc3cc4c(cc3OC)CCN(C)[C@@H]4Cc3ccc(O)cc3)c1)N(C)CC2 [Liensinine]	-0.418	-0.081	-0.249	16619							21336.6	11901.3	

Results, then the molecule that gave them:

Z repl 1	Z Repl 2	av Z [1]	av puncta [2]	raw data 1 (puncta)	raw data 2 (puncta)	av Z [3]	av puncta (average of raw data 1 and 2)	av Z [4]	av Z [5]	raw data 1 (raw puncta)	raw data 2 (raw puncta)	AvZ (average z score of seeding, SDs from the mean level of seeding)	SMILES
-0.906	-0.245	-0.575	12810.9	15471.3	10150.6								O=c1cc(-c2ccc(O)cc2)oc2cc(O)c([C@@H]3O[C@H](CO)[C@@H](O)[C@H](O)[C@H]3O[C@@H]3OC[C@H](O)[C@H](O)[C@H]3O)c(O)c12 [Isovitexin 2''-O-arabinoside]
1.473	0.443			44034.1	17499.7	0.958	30766.9						COc1cc(-c2cc(=O)c3c(O)c(OC)c(O)cc3o2)ccc1O [Jaceosidin]
0.183	-0.42			28546.2	8283.25		18414.7		-0.118				COc1ccc(CCO[C@@H]2O[C@H](CO[C@@H]3O[C@H](CO)[C@H](O)[C@H](O)[C@H]3O)[C@@H](OC(=O)/C=C/c3ccc(O)c(OC)c3)[C@H](O[C@@H]3O[C@@H](C)[C@H](O)[C@@H](O)[C@H]3O)[C@H]2O)cc1O [Jionoside B1]
-0.102	-1.05	-0.576	13337	25119.1	1554.77								COc1ccc(-c2oc3cc(O)cc(O)c3c(=O)c2O)cc1 [Kaempferide]
-1.403	-0.446	-0.924		9507.36	8006.82		8757.09						C[C@@H]1O[C@@H](Oc2cc(O)c3c(=O)c(O[C@@H]4O[C@@H](C)[C@H](O)[C@@H](O)[C@H]4O)c(-c4ccc(O)cc4)oc3c2)[C@H](O)[C@H](O)[C@H]1O [Kaempferitrin]
0.499	0.597			32345.4	19144.3		25744.8	0.548					O=C(O)[C@H]1O[C@@H](Oc2c(-c3ccc(O)cc3)oc3cc(O)cc(O)c3c2=O)[C@H](O)[C@@H](O)[C@@H]1O [Kaempferol 3-O-?-D-glucuronide]
0.421	-0.356			31398.7	8962.19		20180.4		0.032				O=c1c(O[C@@H]2O[C@H](CO[C@@H]3O[C@H](CO)[C@@H](O)[C@H](O)[C@H]3O)[C@@H](O)[C@H](O)[C@H]2O)c(-c2ccc(O)cc2)oc2cc(O)cc(O)c12 [Kaempferol 3-O-gentiobioside]
-0.587	0.035	-0.276	16225.3							19307.9	13142.7		O=c1c(O[C@@H]2O[C@H](CO)[C@@H](O)[C@H](O)[C@H]2O[C@@H]2O[C@H](CO)[C@@H](O)[C@H](O)[C@H]2O)c(-c2ccc(O)cc2)oc2cc(O)cc(O)c12 [Kaempferol 3-O-sophoroside]
-1.386	-0.619	-1.002		9710.86	6160.09		7935.47						C[C@@H]1O[C@@H](O[C@H]2[C@H](Oc3c(-c4ccc(O)cc4)oc4cc(O)cc(O)c4c3=O)O[C@H](CO)[C@@H](O)[C@@H]2O)[C@H](O)[C@H](O)[C@H]1O [Kaempferol 3-neohesperidoside]
-0.601	-1.001	-0.801		19130.8	2076.39		10603.6						C[C@H]1O[C@@H](O[C@H]2[C@H](Oc3c(-c4ccc(O)cc4)oc4cc(O)cc(O)c4c3=O)O[C@@H](CO)[C@H](O)[C@H]2O)[C@H](O)[C@@H](O)[C@@H]1O [Kaempferol-3-O-glucorhamnoside]
-0.004	-0.903	-0.454	14707.1							26297.7	3116.65		O=c1c(O)c(-c2ccc(O)cc2)oc2cc(O)cc(O)c12 [Kaempferol]
0.063	0.629			27102.4	19478.8		23290.6	0.346					CC(C)=CCc1c(-c2ccc(O)cc2O)oc2c([C@H]3C=C(C)C[C@@H](c4ccc(O)cc4O)[C@@H]3C(=O)c3ccc(O)cc3O)c(O)cc(O)c2c1=O [Kuwanon G]
-0.22	0.532			23703	18451.1		21077.1	0.156					CC(C)=CCc1c(O)ccc(C(=O)[C@@H]2[C@@H](c3c(O)cc(O)c4c(=O)c(CC=C(C)C)c(-c5ccc(O)cc5O)oc34)C=C(C)C[C@H]2c2ccc(O)cc2O)c1O [Kuwanon H]
1.035	0.525			38768.9	18372.9	0.78	28570.9						CC(C)=CCc1cc2c(=O)cc(-c3ccc(O)cc3)oc2cc1O [Licoflavone A]
